Experimental data as given in PMC3914206.

Columns and labels:
Assay type in all cases: binding
[1] = target: T1, panel of 442 kinases (Homo sapiens, UniProt Q02779); conditions: Compound Concentration 10 µM
T1 construct: purchased KINOMEscan
From the text: (§1) We assessed the selectivity of members of this scaffold using the KINOMEscan methodology across a near comprehensive panel of 442 kinases [[18,27]].

[2] = target: T2, panel of 442 kinases (Homo sapiens, UniProt Q8NEV4); conditions: Compound Concentration 10 µM
T2 construct: purchased KINOMEscan
T2 sequence (Q8NEV4 whole entry): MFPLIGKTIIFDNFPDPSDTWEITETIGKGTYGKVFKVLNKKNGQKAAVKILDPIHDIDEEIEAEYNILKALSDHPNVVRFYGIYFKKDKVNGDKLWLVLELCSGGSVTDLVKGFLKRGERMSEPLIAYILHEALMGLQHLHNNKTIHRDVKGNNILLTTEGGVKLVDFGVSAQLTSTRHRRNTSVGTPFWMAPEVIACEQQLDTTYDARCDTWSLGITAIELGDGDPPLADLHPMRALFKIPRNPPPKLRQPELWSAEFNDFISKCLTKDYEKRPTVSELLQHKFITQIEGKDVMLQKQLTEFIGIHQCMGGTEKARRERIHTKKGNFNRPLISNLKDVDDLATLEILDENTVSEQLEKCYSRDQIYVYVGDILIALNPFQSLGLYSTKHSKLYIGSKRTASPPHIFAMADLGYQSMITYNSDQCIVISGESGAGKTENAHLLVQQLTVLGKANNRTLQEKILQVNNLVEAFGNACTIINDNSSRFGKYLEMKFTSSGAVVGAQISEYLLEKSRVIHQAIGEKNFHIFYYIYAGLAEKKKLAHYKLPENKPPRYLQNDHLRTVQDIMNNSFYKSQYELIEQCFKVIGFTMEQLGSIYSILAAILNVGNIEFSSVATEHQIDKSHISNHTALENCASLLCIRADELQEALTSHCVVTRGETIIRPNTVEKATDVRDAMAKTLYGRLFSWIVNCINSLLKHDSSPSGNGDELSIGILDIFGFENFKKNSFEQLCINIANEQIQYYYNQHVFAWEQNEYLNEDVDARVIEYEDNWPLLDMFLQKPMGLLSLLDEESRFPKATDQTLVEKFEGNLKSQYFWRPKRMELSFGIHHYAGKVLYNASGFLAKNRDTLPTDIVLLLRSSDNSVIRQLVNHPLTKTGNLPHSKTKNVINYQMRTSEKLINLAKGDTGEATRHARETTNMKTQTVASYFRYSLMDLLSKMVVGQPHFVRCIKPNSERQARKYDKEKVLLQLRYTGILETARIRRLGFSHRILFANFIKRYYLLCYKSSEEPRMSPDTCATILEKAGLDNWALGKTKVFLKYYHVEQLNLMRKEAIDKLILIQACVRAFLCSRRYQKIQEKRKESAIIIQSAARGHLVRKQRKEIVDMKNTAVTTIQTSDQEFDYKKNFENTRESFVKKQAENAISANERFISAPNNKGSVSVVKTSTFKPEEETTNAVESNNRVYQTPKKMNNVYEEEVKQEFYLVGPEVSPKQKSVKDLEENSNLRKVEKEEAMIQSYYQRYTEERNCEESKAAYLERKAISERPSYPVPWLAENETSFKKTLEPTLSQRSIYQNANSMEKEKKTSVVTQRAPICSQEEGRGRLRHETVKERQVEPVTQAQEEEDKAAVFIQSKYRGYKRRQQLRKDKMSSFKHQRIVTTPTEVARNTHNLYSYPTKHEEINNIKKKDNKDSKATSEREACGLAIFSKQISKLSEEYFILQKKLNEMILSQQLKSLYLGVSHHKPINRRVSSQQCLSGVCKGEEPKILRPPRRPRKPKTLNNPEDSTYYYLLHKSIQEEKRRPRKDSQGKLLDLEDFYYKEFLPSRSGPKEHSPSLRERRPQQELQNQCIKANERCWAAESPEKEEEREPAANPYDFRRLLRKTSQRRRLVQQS
From the text: as §1

[3] = target: T3, panel of 442 kinases (Homo sapiens, UniProt Q86UX6); conditions: kinase YANK3; compound concentration 10 µM
T3 construct: purchased KINOMEscan
T3 sequence (Q86UX6 whole entry): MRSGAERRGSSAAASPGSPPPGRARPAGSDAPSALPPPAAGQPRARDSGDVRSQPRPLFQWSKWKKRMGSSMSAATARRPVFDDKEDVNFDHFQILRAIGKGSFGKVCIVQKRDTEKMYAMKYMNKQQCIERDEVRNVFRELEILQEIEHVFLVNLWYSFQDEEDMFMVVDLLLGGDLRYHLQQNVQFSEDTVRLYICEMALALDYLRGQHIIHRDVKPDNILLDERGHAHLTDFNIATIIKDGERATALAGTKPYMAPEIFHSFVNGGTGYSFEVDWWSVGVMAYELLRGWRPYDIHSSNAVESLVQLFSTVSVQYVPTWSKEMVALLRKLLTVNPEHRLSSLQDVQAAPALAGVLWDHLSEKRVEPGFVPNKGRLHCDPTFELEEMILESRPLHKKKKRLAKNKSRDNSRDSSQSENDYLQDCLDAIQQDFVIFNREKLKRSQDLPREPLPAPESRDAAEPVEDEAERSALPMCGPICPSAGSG
From the text: as §1

T1 sequence (Q02779 whole entry): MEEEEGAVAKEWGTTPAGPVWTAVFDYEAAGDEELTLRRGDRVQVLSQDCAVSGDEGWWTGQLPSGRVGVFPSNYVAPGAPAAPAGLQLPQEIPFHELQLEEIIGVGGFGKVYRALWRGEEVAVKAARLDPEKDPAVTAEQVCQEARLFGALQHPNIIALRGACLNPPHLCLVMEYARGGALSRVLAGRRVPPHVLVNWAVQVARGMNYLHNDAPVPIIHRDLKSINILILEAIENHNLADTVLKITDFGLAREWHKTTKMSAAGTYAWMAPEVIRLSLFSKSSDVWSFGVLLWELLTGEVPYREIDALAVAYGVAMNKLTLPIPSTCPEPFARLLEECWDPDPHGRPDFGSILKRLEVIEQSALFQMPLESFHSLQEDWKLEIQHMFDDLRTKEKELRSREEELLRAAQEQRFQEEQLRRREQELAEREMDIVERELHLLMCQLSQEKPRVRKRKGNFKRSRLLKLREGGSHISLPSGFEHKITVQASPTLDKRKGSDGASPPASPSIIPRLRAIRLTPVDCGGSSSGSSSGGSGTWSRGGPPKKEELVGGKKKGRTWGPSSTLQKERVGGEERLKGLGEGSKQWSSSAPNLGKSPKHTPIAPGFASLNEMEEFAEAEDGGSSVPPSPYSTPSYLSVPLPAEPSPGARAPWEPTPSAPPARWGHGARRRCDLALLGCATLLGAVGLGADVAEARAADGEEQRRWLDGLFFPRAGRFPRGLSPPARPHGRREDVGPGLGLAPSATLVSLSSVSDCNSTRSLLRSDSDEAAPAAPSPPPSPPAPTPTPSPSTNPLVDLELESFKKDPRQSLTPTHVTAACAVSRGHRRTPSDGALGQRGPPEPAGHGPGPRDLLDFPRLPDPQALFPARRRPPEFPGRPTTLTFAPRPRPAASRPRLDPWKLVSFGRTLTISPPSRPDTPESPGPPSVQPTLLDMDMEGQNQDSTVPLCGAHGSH

Row | Compound | KINOMEscan: MLK2 [1] | KINOMEscan: MYO3A [2] | % Ctrl, YANK3 [3] [% Ctrl]
1 | COc1cc(C(=O)N2CCC(N3CCN(C)CC3)CC2)ccc1Nc1ncc2c(n1)N(C1CCCC1)c1ccccc1C(=O)N2C [Compound 25, 11-cyclopentyl-2-((2-methoxy-4-(4-(4-methylpiperazin-1-yl)piperidine-1-carbonyl)phenyl)amino)-5-methyl-5H-benzo[e]pyrimido[5,4-b][1,4]diazepin-6(11H)-one] | 96 | 86 | 100
2 | COc1cc(C(=O)N2CCC(N3CCN(C)CC3)CC2)ccc1Nc1ncc2c(n1)N1CCc3cccc(c31)C(=O)N2C [Compound 24] | 98 | – | 100
3 | COc1cc(C(=O)N2CCC(N3CCN(C)CC3)CC2)ccc1Nc1ncc2c(n1)N(C)c1ccccc1C(=O)N2C [15 (LRRK2-IN-1)] | 100 | 94 | 100
4 | CCOc1cc(C(=O)N2CCC(N3CCN(C)CC3)CC2)ccc1Nc1ncc2c(n1)N(C1CCCC1)c1ccccc1C(=O)N2C [Compound 26] | 100 | 100 | 100
